Measured values: publication PMC4965013, “Open Source Drug Discovery with the Malaria Box Compound Collection for Neglected Diseases and Beyond” (PLoS Pathogens, 2016)

Columns and labels:
[1] = system: P. falciparum 3D7 trophozoites; assay: Metabolomic fingerprint profiling LC-MS; type: cell-based, Plasmodium falciparum; parameters: UDP-D-glucose / ADP-D-glucose: unit not given here; details: for Acetyllysine / N-acetyl-L-ornithine / N-carbamoyl-L-aspartate / NADPH / dAMP / dCMP / dTDP / dTMP / dTTP / dihydroorotate / orotate / DLH / DLS/SDL/SID / PD / PEE / PVNF / 3-phosphoglycerate / ADP-D-glucose / ATP / CDP / D-sedoheptulose-1/7-phosphate / FAD / GMP / NAD+ / NADP+ / Octoluse Bisphosphate / Pyroglutamic acid / UDP-D-glucose / UDP-D-glucuronate / UDP-N-acetyl-glucosamine / UDP / UMP / UTP / a-ketoglutarate / citrate/isocitrate / cytidine / dATP / dGMP/AMP / fumarate / glucose-1/6-phosphate / glycerate / guanine / guanosine / hypoxanthine / indole / inosine / nicotinate / ornithine / phosphoenolpyruvate / pyruvate / ribose-phosphate / sarcosine/alanine / sn-glycerol-3-phosphate / succinate/methylmalonic acid / uridine / xanthosine: S2 Table Metabolomics; for Acetyllysine: metabolite Acetyllysine; for N-acetyl-L-ornithine: metabolite N-acetyl-L-ornithine; for N-carbamoyl-L-aspartate: metabolite N-carbamoyl-L-aspartate; for NADPH: metabolite NADPH; for dAMP: metabolite dAMP; for dCMP: metabolite dCMP; for dTDP: metabolite dTDP; for dTMP: metabolite dTMP; for dTTP: metabolite dTTP; for dihydroorotate: metabolite dihydroorotate; for orotate: metabolite orotate; for DLH: peptide DLH; for DLS/SDL/SID: peptide DLS/SDL/SID; for PD: peptide PD; for PEE: peptide PEE; for PVNF: peptide PVNF; for 3-phosphoglycerate: metabolite 3-phosphoglycerate; for ADP-D-glucose: metabolite ADP-D-glucose; for ATP: metabolite ATP; for CDP: metabolite CDP; for CDP / D-sedoheptulose-1/7-phosphate / GMP / Octoluse Bisphosphate / UDP / UMP / UTP / citrate/isocitrate / dGMP/AMP / fumarate / glucose-1/6-phosphate / glycerate / guanine / guanosine / inosine / pyruvate / sarcosine/alanine / succinate/methylmalonic acid / uridine / xanthosine: change in metabolite level after compound treatment; for D-sedoheptulose-1/7-phosphate: metabolite D-sedoheptulose-1/7-phosphate; for FAD: metabolite FAD; for GMP: metabolite GMP; for NAD+: metabolite NAD+; for NADP+: metabolite NADP+; for Octoluse Bisphosphate: metabolite Octoluse Bisphosphate; for Pyroglutamic acid: metabolite Pyroglutamic acid; for UDP-D-glucose: metabolite UDP-D-glucose; for UDP-D-glucuronate: metabolite UDP-D-glucuronate; for UDP-N-acetyl-glucosamine: metabolite UDP-N-acetyl-glucosamine; for UDP: metabolite UDP; for UMP: metabolite UMP; for UTP: metabolite UTP; for a-ketoglutarate: metabolite a-ketoglutarate; for citrate/isocitrate: metabolite citrate/isocitrate; for cytidine: metabolite cytidine; for dATP: metabolite dATP; for dGMP/AMP: metabolite dGMP/AMP; for fumarate: metabolite fumarate; for glucose-1/6-phosphate: metabolite glucose-1/6-phosphate; for glycerate: metabolite glycerate; for guanine: metabolite guanine; for guanosine: metabolite guanosine; for hypoxanthine: metabolite hypoxanthine; for indole: metabolite indole; for inosine: metabolite inosine; for 2_3-Diphosphoglyceric acid / 4-phosphopantothenate / 6-phospho-D-gluconate / FMN / IMP / Pyrophosphate / Sedoheptoluse bisphosphate / cyclic-AMP / glutathione disulfide / lactate / myo-inositol: metabolite level change after treatment; for nicotinate: metabolite nicotinate; for ornithine: metabolite ornithine; for phosphoenolpyruvate: metabolite phosphoenolpyruvate; for pyruvate: metabolite pyruvate; for ribose-phosphate: metabolite ribose-phosphate; for sarcosine/alanine: metabolite sarcosine/alanine; for sn-glycerol-3-phosphate: metabolite sn-glycerol-3-phosphate; for succinate/methylmalonic acid: metabolite succinate/methylmalonic acid; for uridine: metabolite uridine; for xanthosine: metabolite xanthosine
[2] = system: P. falciparum; assay: EC50 listed in S2 Table Metabolomics (used to set the concentration tested); type: cell-based; details: Plasmodium falciparum; EC50 used for Factor_XEC50 in metabolomics; read-out: EC50_nM

## CC(C)(C)c1ccc(O)c(CNC2CCCCC2)c1 [MMV665785]
[1]
  Acetyllysine: -3.15
  N-acetyl-L-ornithine: -2.311
  N-carbamoyl-L-aspartate: -1.546
  NADPH: 0.984
  dAMP: -0.2403
  dCMP: -0.2349
  dTDP: -0.5512
  dTMP: -0.26
  dTTP: 0.1164
  dihydroorotate: -0.9762
  orotate: -1.456
  DLH: -3.579
  DLS/SDL/SID: -3.002
  PD: -3.491
  PEE: -3.582
  PVNF: -4.043
  3-phosphoglycerate: 0.5402
  ADP-D-glucose: -0.1351
  ATP: 0.1038
  CDP: 0.1776
  D-sedoheptulose-1/7-phosphate: 0.09578
  FAD: 0.3792
  GMP: -0.7077
  NAD+: 1.206
  NADP+: 0.3365
  Octoluse Bisphosphate: 0.02588
  Pyroglutamic acid: -0.2254
  UDP-D-glucose: 0.3073
  UDP-D-glucuronate: 0.153
  UDP-N-acetyl-glucosamine: 0.3019
  UDP: -0.1861
  UMP: -0.1897
  UTP: -0.0004267
  a-ketoglutarate: -1.327
  citrate/isocitrate: -0.9862
  cytidine: 0.6078
  dATP: 0.1738
  dGMP/AMP: -0.2591
  fumarate: -2.071
  glucose-1/6-phosphate: 0.2752
  glycerate: -0.524
  guanine: -0.6198
  guanosine: -0.8871
  hypoxanthine: -0.2777
  indole: -0.4001
  inosine: -0.2517
  2_3-Diphosphoglyceric acid: 0.5476
  4-phosphopantothenate: -0.1524
  6-phospho-D-gluconate: 0.3686
  FMN: 0.4685
  IMP: 0.07164
  Pyrophosphate: 0.2456
  Sedoheptoluse bisphosphate: 0.06348
  cyclic-AMP: -0.9854
  glutathione disulfide: -0.1571
  lactate: -0.3018
  myo-inositol: 0.3826
  nicotinate: -0.1953
  ornithine: -0.1957
  phosphoenolpyruvate: 0.4685
  pyruvate: -0.3246
  ribose-phosphate: -0.2844
  sarcosine/alanine: -1.431
  sn-glycerol-3-phosphate: -0.03786
  succinate/methylmalonic acid: -0.9733
  uridine: -0.6886
  xanthosine: -1.575
[2]
  EC50: 0.161 µM

## CCOc1ccc(-c2nonc2NC(=O)c2cccc(C)c2)cc1OCC [MMV665805]
[1]
  Acetyllysine: -2.655
  N-acetyl-L-ornithine: -3.165
  N-carbamoyl-L-aspartate: -1.056
  NADPH: 0.0179
  dAMP: -0.2659
  dCMP: -0.0001746
  dTDP: -0.4156
  dTMP: 0.168
  dTTP: -1.808
  dihydroorotate: -0.8461
  orotate: -0.316
  DLH: -3.43
  DLS/SDL/SID: -2.376
  PD: -4.256
  PEE: -1.272
  PVNF: -3.291
  3-phosphoglycerate: -0.4238
  ADP-D-glucose: -0.07023
  ATP: -0.872
  CDP: 0.2433
  D-sedoheptulose-1/7-phosphate: 0.2738
  FAD: -1.216
  GMP: -1.407
  NAD+: -0.2783
  NADP+: 0.09325
  Octoluse Bisphosphate: -2.628
  Pyroglutamic acid: 0.2488
  UDP-D-glucose: -0.08929
  UDP-D-glucuronate: 0.1004
  UDP-N-acetyl-glucosamine: -0.1333
  UDP: 0.1418
  UMP: -2.433
  UTP: -1.276
  a-ketoglutarate: 0.06268
  citrate/isocitrate: -0.7764
  cytidine: -0.5056
  dATP: -1.548
  dGMP/AMP: 0.3312
  fumarate: -2.16
  glucose-1/6-phosphate: -1.496
  glycerate: -1.128
  guanine: -1.378
  guanosine: -1.192
  hypoxanthine: 0.2303
  indole: 0.06669
  inosine: -2.254
  2_3-Diphosphoglyceric acid: -1.518
  4-phosphopantothenate: -1.982
  6-phospho-D-gluconate: -1.236
  FMN: -1.528
  IMP: -1.238
  Pyrophosphate: -1.477
  Sedoheptoluse bisphosphate: -1.741
  cyclic-AMP: -2.892
  glutathione disulfide: -1.641
  lactate: -4.838
  myo-inositol: -5.977
  nicotinate: -0.4798
  ornithine: -0.1601
  phosphoenolpyruvate: 0.09842
  pyruvate: -2.577
  ribose-phosphate: -0.0001746
  sarcosine/alanine: -2.25
  sn-glycerol-3-phosphate: -0.6654
  succinate/methylmalonic acid: -1.698
  uridine: -2.032
  xanthosine: 0.4761
[2]
  EC50: 0.117 µM
